The test system of assay [1] is 4T1 tumors. As to the kind of experiment: 4T1 breast tumor model in BALB/c mice. Type of assay: in vivo. As for the experimental part:
C57BL/6 and BALB/c mice (8-12 weeks, female) were purchased from Jackson Labs (Bar Harbor, Me.). They were housed at the University of South Carolina Animal Research Facility, and all procedures were approved by the Institutional Animal Care and Use Committee. EO771 or 4T1 cells (2×10^5) in 20 μL of PBS were injected into the 4th pair of mammary glands on C57BL/6 mice or BALB/C, respectively, on Day 0. Starting on Day 1, emodin (40 mg/kg) or vehicle (2% DMSO) was injected intraperitoneally in 1 ml PBS once daily. The tumor size was measured using a caliper every 2-4 days, and the tumor volume was calculated using a formula: V (mm^3)=L (major axis)×W^2 (minor axis)/2. Mice were sacrificed at various time points.
The tumor draining lymph nodes and tumors were collected, and cell populations were analyzed using flow cytometry. Briefly, cells were stained with anti-CD3 FITC, anti-CD4 APC or anti-CD8 APC, and anti-CD25 PE (Biolegend) in PBS containing 2% FBS for 30 min at 4° C. Samples were washed twice with staining buffer and analyzed by flow cytometry using a BD FACS flow cytometer and CXP software version 2.2 (BD Biosciences, San Jose, Calif.). Data were collected for 20,000 live events per sample.
At sacrifice, tumors were embedded in OCT. They were then cut into 8 μm thick frozen sections and placed on slides. For immunohistochemistry staining, the sections were fixed with 4% paraformaldehyde for 10 min, and then blocked with 0.01 M glycine containing 0.1% Triton x-100. Next, the sections were blocked with 5% BSA. They were then incubated in primary antibody overnight at 4° C.: anti-F4/80 (1:50, Biolegend), anti-pSTAT6 (1:50, Cell Signaling), or anti-C/EBPβ (1:50, Santa Cruz). The sections were washed with PBS and then incubated with secondary antibodies for 1 h at room temperature. The sections were then stained with DAPI (1 μg/mL) and coverslipped with DABCO. Slides were imaged using a Zeiss LSM 510 Confocal microscope (Zeiss, Peabody, Mass.). For quantitative analysis, the number of positive cells was manually counted in six random fields of view per section. CD31 staining was performed according to standard methodology. Slides were imaged on a Nikon ECLIPSE E600 microscope (Nikon, Melville, N.Y.) at 200× magnification (10 fields per section). The integrated optical density (IOD) of CD31 was quantified using Image-Pro Plus software.
Macrophages or T cells were isolated from 4T1 tumors from mice sacrificed at 6 weeks post implantation or from EO771 tumors 5 weeks post implantation, using EasySep™ Mouse PE Positive Selection Kit (Stem Cell Technologies, Vancouver, BC). For cell isolation, 1×10^7-1×10^8 cells were incubated with 20 μL PE conjugated anti-F4/80 (Biolegend) for macrophages or 20 μL PE conjugated anti-CD3 for T cells and 50 μL microbeads. The T cells and macrophages were lysed in Qiazol and used for RT-PCR analysis. For ChIP assays, 5-10×10^6 macrophages were fixed in 1% formaldehyde.
Macrophages were fixed in 1% formaldehyde. Excess formaldehyde was quenched with glycine, and the cells were collected in PBS by scraping. The cells were lysed (0.5% IGEPAL, 4 mM HEPES), and the nuclei were resuspended in nuclear lysis buffer (1% SDS, 10 mM EDTA, and 50 mM Tris, pH 8.1). The DNA was sheared by sonication using a Diagnode Bioruptor Pico (Diagenode, Denville, N.J.) for 25 cycles of 30 s on/30 s off. Then 8 μg chromatin was diluted 1:10 (0.01% SDS, 1.1% Triton X-100, 1.2 mM EDTA, 16.7 mM Tris-HCl, pH 8.1, 167 mM NaCl), and 2% of the input was removed from each sample and saved for analysis. Anti-H3K27m3 (Abcam) was added to each sample along with 20 μL of protein A+G magnetic beads (Millipore), and the samples were incubated overnight at 4° C. The beads were washed with low salt, high salt, LiCl, and TE wash buffers sequentially, and the DNA was eluted off the beads with Proteinase K at 62° C. for 2 h (elution buffer: 200 mM NaCl, 1% SDS and 50 mM Tris). The DNA was then analyzed by qPCR.

The test system of assay [2] is EO771 cells. As to the kind of experiment: Tumor cell gene expression (qPCR). To be noted: 24 h post-treatment. Type of assay: cell-based, mouse. As for the experimental part:
(§1) For qPCR, cells were lysed with Qiazol, and RNA was extracted using Zymo research Direct-zol RNA isolation kit. cDNA was then made from 1 μg of RNA using iScript cDNA Synthesis Kit (Bio-Rad Life Science, Hercules, Calif.). Run conditions were 95° C. for 10 s, 58° C. for 15 s, 70° C. for 15 s. Samples were run in duplicate on a Bio-rad CFX Real Time thermocycler.
A general note: Real-time PCR tracks product formation cycle by cycle.

The subject of assay [3] is 4T1 cells. The assay is described as follows: Tumor cell gene expression (qPCR). Type of assay: cell-based, mouse. The conditions noted are these: 24 h post-treatment. As for the experimental part:
as §1

Assay [4] relates to 4T1 tumors. The assay is described as follows: Survival after surgical removal of primary 4T1 tumors. Type of assay: in vivo, BALB/c mice. The conditions noted are these: 10 mice. As for the experimental part:
A cohort of 30 8-week-old, female BALB/c mice were injected with 2×10^5 4T1 cells suspended in 20 μL PBS in each of their fourth mammary fat pads. The mice were randomly divided into three groups with 10 mice in each group. On day 10, tumors had reached a volume of 100-200 mm^3, and were surgically removed. […] Post-surgical treatment began on day 11. This treatment involved each of the three groups receiving 800 μL daily IP injections of one of the following mixtures: PBS with 2% DMSO by volume (Control group), PBS with 1% DMSO by volume and 1% by volume of 50 mg/mL emodin in DMSO, or PBS with 2% by volume of 50 mg/mL emodin in DMSO. […] Daily IP emodin injections were administered until day 24; from day 25 to day 41, emodin was administered every other day. During the 41 days after the tumor removal, 3 mice in the control group died, while 2 mice and 1 mouse died in low emodin group and high emodin group, respectively (FIG. 16).

The mark [5] stands for this setting: 40 mg/kg IP once daily from Day 1.

`Cc1cc(O)c2c(c1)C(=O)c1cc(O)cc(O)c1C2=O` [emodin]: in assay [1] (setting [5]), the primary tumor growth result is on record as “significant inhibition” and the “tumor weight at the endpoint” value is reported as “significant inhibition”. In addition, in assay [1] (26 days post implantation), the “fraction of macrophages positive for pSTAT6 and C/EBPβ” value is listed as “significantly reduced”. The “number of macrophages in tumors” value in assay [1] (26 days post implantation, tumor size not different) is “significantly reduced”. For the same compound, the “H3K27m3 levels on the IRF4 promoter in TAMs” value in assay [1] (ChIP-qPCR) is reported as “significantly increased”. For the same compound, in assay [1] (experimental endpoint, RT-qPCR), the “expression of IRF4 in TAMs” value is “significantly decreased” and the “expression of JMJD3 in TAMs” value was “significantly decreased”. In assay [1] (flow cytometry, CD25), the “activated CD4+ and CD8+ T cells in draining lymph nodes” value is “increased”. For the same compound, in assay [1] (qPCR), the “IFNγ expression in CD3+ T cells vs control mice” value was “two-fold increase”. In assay [2], the “expression of MCP1, CSF1, and CSF2” value is recorded as “significantly inhibited”; the “tumor cell expression of Thy1” value is “significantly inhibited”. In assay [3], the “expression of MCP1, CSF1, and CSF2” value was “significantly inhibited”; the “tumor cell expression of Thy1” value is on record as “significantly inhibited”. Besides, the “mice that died during the 41 days after tumor removal” value in assay [4] (high emodin dose group, approximately 40 mg/kg IP) came to 1 mouse. The “mice that died during the 41 days after tumor removal” value in assay [4] (low emodin dose group, approximately 20 mg/kg IP) was 2 mice.

Source of the values: patent publication US9795570B2, “Modulation of macrophage phenotype by emodin” (University of South Carolina, priority 2016, dated 2017).
